In paper PMC12346557, “Design, Synthesis, and Anticancer Evaluation of New Small-Molecule EGFR Inhibitors Targeting NSCLC and Breast Cancer” (International Journal of Molecular Sciences, 2025):
Where two headings read alike, the source gives them in different places.

Key:
A549 cells [1] = assay: MTT cytotoxicity assay, A549 cells; assay type: cell-based, human; settings: triplicate; for IC50: Homo sapiens, A549, 72 h culture, 1-100 µM; for reduction of A549 cell viability: 100 µM, 72 h
MCF-7 cells [2] = assay: MTT cytotoxicity assay, MCF-7 cells; assay type: cell-based; settings: Homo sapiens, triplicate; for inhibition at 100 µM: MCF7, 100 µM, 72 h; for IC50: MCF7, 72 h culture, 1-100 µM
Jurkat cells = assay: MTT cytotoxicity assay, Jurkat cells; assay type: cell-based, human; settings: for IC50: Homo sapiens, Jurkat, MTT
Procedure: A549 and MCF-7 human cancer cell lines were cultured in Dulbecco’s Modified Eagle’s Medium (DMEM) (Wako Pure Chemical Industries, Osaka, Japan) supplemented with 10% fetal bovine serum (FBS) (Equitech-Bio, Kerrville, TX, USA). […] All media were supplemented with 89 μg/mL of streptomycin (Meiji Seika Pharma, Tokyo, Japan). […] Cancer cells and PBMCs were seeded into 24-well and 96-well microtiter tissue culture plates (Iwaki, Asahi Glass Co., Chiba, Japan) at densities of 4 × 10^4 cells/mL and 5 × 10^5 cells/mL, respectively, and incubated for 72 h prior to drug treatment. The optimal seeding density for cytotoxicity assays was determined through preliminary testing. […] The cellular reduction MTT (Dojindo Molecular Technologies, Kumamoto, Japan) was assessed following established protocols from the literature, with slight modifications.

MCF-7 cells [3] = system: MCF-7 cells; parameters: method as in ref 31 (1), 32 (2), 33 (3), 35 (6), 37 (8), 38 (9), 39 (10), 11 (11); settings: Figure 3; ref 31 (1), 32 (2), 33 (3), 35 (6), 37 (8), 38 (9), 39 (10), 11 (11); cited from earlier work
EGFR = settings: cited from earlier work; for IC50: Figure 3, read-out: EGFR inhibition: IC50; for EGFR inhibition: Figure 3, concentration not given, ref 36 (7), 11 (11)
A549 cells [4] = system: A549 cells; parameters: method as in ref 33 (3), 34 (4, 5), 36 (7), 38 (9), 39 (10), 11 (11); settings: Figure 3; ref 33 (3), 34 (4, 5), 36 (7), 38 (9), 39 (10), 11 (11); cited from earlier work
PBMCs = assay: MTT cytotoxicity assay, PBMCs (healthy); assay type: cell-based; settings: PBMC
Procedure: A549 and MCF-7 human cancer cell lines were cultured in Dulbecco’s Modified Eagle’s Medium (DMEM) (Wako Pure Chemical Industries, Osaka, Japan) supplemented with 10% fetal bovine serum (FBS) (Equitech-Bio, Kerrville, TX, USA). Jurkat cells, derived from human leukemia, were maintained in RPMI 1640 medium (Wako Pure Chemical Industries) with 10% FBS. PBMCs (Precision Bioservices, Frederick, MD, USA) were cultured in RPMI 1640 medium supplemented with 10% human AB serum (HS) (Gemini, Woodland, CA, USA). All media were supplemented with 89 μg/mL of streptomycin (Meiji Seika Pharma, Tokyo, Japan). Cells were incubated at 37 °C in a humidified atmosphere containing 95% air and 5% CO2. Cancer cells and PBMCs were seeded into 24-well and 96-well microtiter tissue culture plates (Iwaki, Asahi Glass Co., Chiba, Japan) at densities of 4 × 10^4 cells/mL and 5 × 10^5 cells/mL, respectively, and incubated for 72 h prior to drug treatment. The optimal seeding density for cytotoxicity assays was determined through preliminary testing. […] The cellular reduction MTT (Dojindo Molecular Technologies, Kumamoto, Japan) was assessed following established protocols from the literature, with slight modifications.

[5] = ref 31 (1), 33 (3), 35 (6), 37 (8), 38 (9), 39 (10)

## Cc1ccc(C2=NN(c3nc(-c4ccccc4)cs3)C(c3cnc(-c4ccc(Cl)cc4)nc3)C2)cc1 (centres unmarked) [BP-1, 1-(4-Phenylthiazol-2-yl)-3-(4-methylphenyl)-5-(2-(4-chlorophenyl)pyrimidin-5-yl)-2-pyrazoline]
A549 cells [1]
  IC50: > 100 µM
MCF-7 cells [2]
  inhibition at 100 µM: 27 to 53%
  IC50: 91.6 ± 10.2 µM
Jurkat cells
  IC50: > 100 µM

## Cc1ccc(C2=NN(c3nc(-c4ccc([N+](=O)[O-])cc4)cs3)C(c3cnc(-c4ccc(Cl)cc4)nc3)C2)cc1 (centres unmarked) [BP-2, 1-(4-(4-Nitrophenyl)thiazol-2-yl)-3-(4-methylphenyl)-5-(2-(4-chlorophenyl)pyrimidin-5-yl)-2-pyrazoline]
MCF-7 cells [2]
  inhibition at 100 µM: 27 to 53%

## Cc1ccc(C2=NN(c3nc(-c4ccc(F)cc4)cs3)C(c3cnc(-c4ccc(Cl)cc4)nc3)C2)cc1 (centres unmarked) [BP-3, 1-(4-(4-Fluorophenyl)thiazol-2-yl)-3-(4-methylphenyl)-5-(2-(4-chlorophenyl)pyrimidin-5-yl)-2-pyrazoline]
MCF-7 cells [2]
  inhibition at 100 µM: 27 to 53%

## Cc1ccc(C2=NN(c3nc(-c4ccc(Cl)cc4)cs3)C(c3cnc(-c4ccc(Cl)cc4)nc3)C2)cc1 (centres unmarked) [BP-4, 1-(4-(4-Chlorophenyl)thiazol-2-yl)-3-(4-methylphenyl)-5-(2-(4-chlorophenyl)pyrimidin-5-yl)-2-pyrazoline]
MCF-7 cells [2]
  inhibition at 100 µM: 27 to 53%

## Cc1ccc(C2=NN(c3nc(-c4ccc(Br)cc4)cs3)C(c3cnc(-c4ccc(Cl)cc4)nc3)C2)cc1 (centres unmarked) [BP-5, 1-(4-(4-Bromophenyl)thiazol-2-yl)-3-(4-methylphenyl)-5-(2-(4-chlorophenyl)pyrimidin-5-yl)-2-pyrazoline]
A549 cells [1]
  reduction of A549 cell viability: 21%
MCF-7 cells [2]
  inhibition at 100 µM: 27 to 53%

## Cc1ccc(C2=NN(c3nc(-c4ccc(C#N)cc4)cs3)C(c3cnc(-c4ccc(Cl)cc4)nc3)C2)cc1 (centres unmarked) [BP-6, 1-(4-(4-Cyanophenyl)thiazol-2-yl)-3-(4-methylphenyl)-5-(2-(4-chlorophenyl)pyrimidin-5-yl)-2-pyrazoline]
MCF-7 cells [2]
  inhibition at 100 µM: 27 to 53%

## Cc1ccc(C2=NN(c3nc(-c4ccc(C(F)(F)F)cc4)cs3)C(c3cnc(-c4ccc(Cl)cc4)nc3)C2)cc1 (centres unmarked) [BP-7, 1-(4-(4-Trifluoromethylphenyl)thiazol-2-yl)-3-(4-methylphenyl)-5-(2-(4-chlorophenyl)pyrimidin-5-yl)-2-pyrazoline]
A549 cells [1]
  reduction of A549 cell viability: 33%
MCF-7 cells [2]
  inhibition at 100 µM: 27 to 53%

## COc1ccc(C2=NN(c3nc(-c4ccccc4)cs3)C(c3cnc(-c4ccc(Cl)cc4)nc3)C2)cc1 (centres unmarked) [BP-8, 1-(4-Phenylthiazol-2-yl)-3-(4-methoxyphenyl)-5-(2-(4-chlorophenyl)pyrimidin-5-yl)-2-pyrazoline]
MCF-7 cells [2]
  inhibition at 100 µM: 27 to 53%

## COc1ccc(C2=NN(c3nc(-c4ccc([N+](=O)[O-])cc4)cs3)C(c3cnc(-c4ccc(Cl)cc4)nc3)C2)cc1 (centres unmarked) [BP-9, 1-(4-(4-Nitrophenyl)thiazol-2-yl)-3-(4-methoxyphenyl)-5-(2-(4-chlorophenyl)pyrimidin-5-yl)-2-pyrazoline]
MCF-7 cells [2]
  inhibition at 100 µM: 27 to 53%

## COc1ccc(C2=NN(c3nc(-c4ccc(F)cc4)cs3)C(c3cnc(-c4ccc(Cl)cc4)nc3)C2)cc1 (centres unmarked) [BP-10, 1-(4-(4-Fluorophenyl)thiazol-2-yl)-3-(4-methoxyphenyl)-5-(2-(4-chlorophenyl)pyrimidin-5-yl)-2-pyrazoline]
A549 cells [1]
  IC50: > 100 µM
MCF-7 cells [2]
  inhibition at 100 µM: 27 to 53%
  IC50: 76 ± 9.91 µM
Jurkat cells
  IC50: > 100 µM

## COc1ccc(C2=NN(c3nc(-c4ccc(Br)cc4)cs3)C(c3cnc(-c4ccc(Cl)cc4)nc3)C2)cc1 (centres unmarked) [BP-12, 1-(4-(4-Bromophenyl)thiazol-2-yl)-3-(4-methoxyphenyl)-5-(2-(4-chlorophenyl)pyrimidin-5-yl)-2-pyrazoline]
MCF-7 cells [2]
  inhibition at 100 µM: 27 to 53%

## COc1ccc(C2=NN(c3nc(-c4ccc(C#N)cc4)cs3)C(c3cnc(-c4ccc(Cl)cc4)nc3)C2)cc1 (centres unmarked) [BP-13, 1-(4-(4-Cyanophenyl)thiazol-2-yl)-3-(4-methoxyphenyl)-5-(2-(4-chlorophenyl)pyrimidin-5-yl)-2-pyrazoline]
MCF-7 cells [2]
  inhibition at 100 µM: 27 to 53%

## COc1ccc(C2=NN(c3nc(-c4ccc(C(F)(F)F)cc4)cs3)C(c3cnc(-c4ccc(Cl)cc4)nc3)C2)cc1 (centres unmarked) [BP-14, 1-(4-(4-Trifluoromethylphenyl)thiazol-2-yl)-3-(4-methoxyphenyl)-5-(2-(4-chlorophenyl)pyrimidin-5-yl)-2-pyrazoline]
MCF-7 cells [2]
  inhibition at 100 µM: 27 to 53%

## Cc1ccc(C2=NN(c3nc(-c4ccc(Cl)cc4)cs3)C(c3ccc(F)cc3)C2)cc1C (centres unmarked) [Compound 1]
MCF-7 cells [3]
  IC50: 0.07 µM
EGFR; [5]
  IC50: 0.06 µM

## COc1ccc2nc(Cl)c(C3CC(c4ccc(C)cc4)=NN3c3nc(-c4ccc(F)cc4)cs3)cc2c1 (centres unmarked) [Compound 2]
MCF-7 cells [3]
  IC50: 0.227 µM
EGFR; ref 32 (2), 34 (4, 5)
  IC50: 0.0318 µM

## N#Cc1ccc(-c2csc(N3N=C(c4ccc(N5CCOCC5)cc4)CC3c3ccc(Cl)cc3)n2)cc1 (centres unmarked) [Compound 3]
A549 cells [4]
  IC50: 10.8 µM
MCF-7 cells [3]
  IC50: 8.05 µM
EGFR; [5]
  IC50: 4.34 µM

## CCOC(=O)c1sc(N2N=C(c3ccc(Cl)cc3Cl)CC2c2ccc(OC)cc2)nc1C (centres unmarked) [Compound 4]
A549 cells [4]
  IC50: 4.22 µM
EGFR; ref 32 (2), 34 (4, 5)
  IC50: 0.0407 µM

## COc1ccc(C2CC(c3ccc(Cl)cc3Cl)=NN2c2nc(C)c(C(=O)Nc3ccccc3)s2)cc1OC (centres unmarked) [Compound 5]
A549 cells [4]
  IC50: 2.92 µM
EGFR; ref 32 (2), 34 (4, 5)
  IC50: 0.0325 µM

## COc1ccc(C2CC(c3ccc(OC)c(OC)c3)=NN2c2nc(-c3ccccc3)cs2)cc1 (centres unmarked) [Compound 6]
MCF-7 cells [3]
  IC50: 7.21 µM
EGFR; [5]
  IC50: 0.009 µM

## Clc1ccc(C2CC(c3ccc4ccccc4c3)=NN2c2nc(-c3ccc(Br)cc3)cs2)cc1 (centres unmarked) [Compound 7]
A549 cells [4]
  IC50: 9.51 µM
EGFR
  EGFR inhibition: 58%

## CCc1nnc2c(Nc3ccc(C(=O)/C=C/c4ccc(OC)cc4)cc3)nc3ccccc3n12 [Compound 8]
MCF-7 cells [3]
  IC50: 8.23 ± 0.25 µM
EGFR; [5]
  IC50: 0.083 ± 0.04 µM

## Cn1c(=O)c2[nH]c(SCC(=O)Nc3ccc(C(=O)/C=C/c4ccc(Cl)cc4)cc3)nc2n(C)c1=O [Compound 9]
A549 cells [4]
  IC50: 1.8 ± 0.7 µM
MCF-7 cells [3]
  IC50: 1.3 ± 0.9 µM

## C=CCn1c(SCC(=O)Nc2ccc(C(=O)/C=C/c3ccc(Cl)cc3)cc2)nnc1-c1cc(-c2ccccc2)nc2ccccc12 [Compound 10]
A549 cells [4]
  IC50: 3.6 ± 0.05 µM
MCF-7 cells [3]
  IC50: 3.3 ± 0.08 µM
EGFR; [5]
  IC50: 1.3 ± 1.2 µM

## COc1ccc(C(=O)/C=C/c2cnc(-c3ccc(Cl)cc3)nc2)cc1OC [Compound 11]
A549 cells [4]
  IC50: 20.5 ± 2.7 µM
MCF-7 cells [3]
  IC50: 6.7 ± 1.02 µM
EGFR
  EGFR inhibition: 46%

## Cc1ccc(C2=NN(C(N)=S)C(c3cnc(-c4ccc(Cl)cc4)nc3)C2)cc1 (centres unmarked) [Compound B-6, 3-(4-Methylphenyl)-5-(2-(4-chlorophenyl)pyrimidin-5-yl)-1-thiocarbamoyl-2-pyrazoline]
A549 cells [1]
  reduction of A549 cell viability: 44%
  IC50: > 100 µM
MCF-7 cells [2]
  inhibition at 100 µM: 79%
  IC50: 6.52 ± 0.97 µM
Jurkat cells
  IC50: 15.1 ± 2.85 µM
Jurkat cells; IC50 for PBMC/IC50 for Jurkat cell line
  SI (Selectivity Index): 7.49
PBMCs
  IC50: 113 ± 15.1 µM

## COc1ccc(C2=NN(C(N)=S)C(c3cnc(-c4ccc(Cl)cc4)nc3)C2)cc1 (centres unmarked) [Compound B-7, 3-(4-methoxyphenyl)-5-(2-(4-chlorophenyl)pyrimidin-5-yl)-1-thiocarbamoyl-2-pyrazoline]
A549 cells [1]
  reduction of A549 cell viability: 35%
MCF-7 cells [2]
  inhibition at 100 µM: 39%

## CS(=O)(=O)CCNCc1ccc(-c2ccc3ncnc(Nc4ccc(OCc5cccc(F)c5)c(Cl)c4)c3c2)o1 [Lapatinib, lapatinib, reference compound]
PBMCs
  IC50: 11 ± 2.47 µM
